{
  "source": "patent US6525090B1",
  "about": "“Methods of treating mental diseases, inflammation and pain” (Neurosciences Research Foundation, Inc., priority 1996, dated 2003)",
  "key": {"[1]": {"biological_target": "T1, rat liver anandamide amidohydrolase (Rattus norvegicus, UniProt P97612)", "T1 construct": "Anandamide amidohydrolase was measured in rat brain or rat liver microsome fractions; from tissue; host or cells: rat liver microsome fractions", "T1 sequence (P97612 1-579)": "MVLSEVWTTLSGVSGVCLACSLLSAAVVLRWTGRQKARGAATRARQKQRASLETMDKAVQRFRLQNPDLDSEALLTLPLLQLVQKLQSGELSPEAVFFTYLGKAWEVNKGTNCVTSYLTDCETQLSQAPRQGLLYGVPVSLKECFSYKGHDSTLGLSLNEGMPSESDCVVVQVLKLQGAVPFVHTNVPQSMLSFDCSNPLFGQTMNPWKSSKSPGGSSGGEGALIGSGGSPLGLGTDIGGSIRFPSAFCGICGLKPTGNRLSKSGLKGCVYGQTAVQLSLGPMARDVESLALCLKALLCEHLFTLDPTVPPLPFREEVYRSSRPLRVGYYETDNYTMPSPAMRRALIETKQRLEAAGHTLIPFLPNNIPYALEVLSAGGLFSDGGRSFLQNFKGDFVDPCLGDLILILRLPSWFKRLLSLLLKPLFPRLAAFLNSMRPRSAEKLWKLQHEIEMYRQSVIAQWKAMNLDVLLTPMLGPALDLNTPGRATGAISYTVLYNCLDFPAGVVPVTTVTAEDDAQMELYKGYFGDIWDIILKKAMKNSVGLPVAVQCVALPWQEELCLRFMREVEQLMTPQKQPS", "experiment": "Anandamide amidohydrolase assay, rat liver microsome fractions", "format": "biochemical", "quoted_text": "Anandamide amidohydrolase was measured in rat brain or rat liver microsome fractions. […] After 10 min. of incubation, the reactions were stopped with cold methanol, the radiolabeled lipids extracted with chloroform, and the organic phases brought to dryness under a stream of N2 gas. The radioactive products were then fractionated by thin-layer chromatography (solvent system: chloroform/methanol/ammonia, 90:10:1 vol/vol/vol), collected by scraping appropriate areas of the chromatography plate, and quantified by liquid scintillation counting."}, "[2]": {"biological_target": "T2, anandamide amidohydrolase of intact astrocytes (Rattus norvegicus, UniProt P97612)", "T2 construct": "endogenous in cells; host or cells: primary rat cortical astrocytes, 3 weeks in culture", "T2 sequence (P97612 1-579)": "T1 sequence (P97612 1-579)", "experiment": "Assay in cultures of cortical astrocytes (anandamide amidohydrolase of intact cells)", "format": "cell-based", "settings": "rat cortical astrocyte cultures, 20 min incubation, 37° C., radiolabeled arachidonic acid or phospholipids measured; read-out: IC50, inhibition of anandamide amidohydrolase of intact astrocytes", "protocol": "Cultures of rat cortical astrocytes, essentially free of neurons, were prepared following the standard procedures described in Cadas et al., J. Neurosci. 16, 3934-3942 (1996), and used after 3 weeks in culture. […] The organic phases were dried, and analyzed as follows. To measure radiolabeled anandamide and arachidonic acid, the organic extracts were fractionated by silica gel G column chromatography, as described in Fontana et al., Prostaglandins Leukotrienes Essential Fatty Acids 53, 301-308 (1995). Radiolabeled anandamide and arachidonic acid were eluted from the column with a solvent system of chloroform/methanol (9:1, vol/vol), and further purified by thin-layer chromatography (solvent system of chloroform/methanol/ammonia, 80:20:1, vol/vol/vol). To measure radiolabeled phospholipids, which were formed in intact cells from the enzymatic esterification of radiolabeled arachidonic acid, the organic extracts were fractionated by thin-layer chromatography (solvent system of chloroform/methanol/ammonia/water, 65:25:4:1, vol/vol/vol/vol)."}, "[3]": {"biological_target": "rat brain anandamide amidohydrolase (Rattus norvegicus, UniProt P97612)", "experiment": "biochemical", "quoted_text": "Anandamide amidohydrolase was measured in rat brain or rat liver microsome fractions. The fractions (0.1 mg of protein) were prepared following the protocols of Desarnaud et al., J. Biol. Chem. 270, 6030-6035 (1995), and were incubated in 50 mM Tris-Cl (pH 7.4) at 37° C., in the presence of radiolabeled anandamide obtained from New England Nuclear, Wilmington, Del., 221 Ci/mmol), plus various concentrations of test inhibitor (0.1-100 μM). After 10 min. of incubation, the reactions were stopped with cold methanol, the radiolabeled lipids extracted with chloroform, and the organic phases brought to dryness under a stream of N2 gas. The radioactive products were then fractionated by thin-layer chromatography (solvent system: chloroform/methanol/ammonia, 90:10:1 vol/vol/vol), collected by scraping appropriate areas of the chromatography plate, and quantified by liquid scintillation counting."}, "[4]": {"tested_on": "uptake of radiolabeled anandamide", "experiment": "Uptake and intracellular level of radiolabeled anandamide in cortical astrocyte cultures", "format": "cell-based", "settings": "rat cortical astrocyte cultures"}},
  "data": [
    {"compound": "O=C1O/C(=C/Br)CCC1c1cccc2ccccc12", "note": "(stereo not drawn) [E-6-(bromomethylene)tetrahydro-3-(1-naphthalenyl)-2H-pyrane-2-one]", "values": [
      {"measurement": "inhibitory concentrations for liver enzyme relative to brain", "setting": "[1]; liver versus brain anandamide amidohydrolase", "result": "more than 100 fold"},
      {"measurement": "IC50", "setting": "[1]; rat liver microsome fractions, 10 min incubation, 37° C., pH 7.4, radiolabeled anandamide, read-out: IC50, inhibition of the liver enzyme", "result": 97000, "unit": "nM"},
      {"measurement": "IC50", "setting": "[2]", "result": 500, "unit": "nM"},
      {"measurement": "IC50", "setting": "[3]", "result": 700, "unit": "nM"},
      {"measurement": "inhibition of uptake of radiolabeled anandamide", "setting": "[4]", "result": "does not inhibit"},
      {"measurement": "intracellular levels of radiolabeled anandamide", "setting": "[4]; in the presence of the compound", "result": "greatly increased"}
    ]}
  ]
}
